Laboratory results reported in patent US20020137929A1, “1 - (3-heterocyclylphenyl) isothiourea, -isourea, -guanidine and -amidine herbicidal agents” (Intellectual Property Department, BASF Aktiengesellschaft, priority 1998, published 2002).

Legend:
ORYSAT (Rice, Tebonnet) = assay: Preemergence herbicidal evaluation; format: in vivo, Oryza sativa, (L.) Tebonnet; settings: rated 4-5 weeks after treatment
Method in brief: (§1)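 Seeds were mixed with potting soil and planted on about one inch of soil, then sprayed with test compound in aqueous acetone at about 0.0156 to 0.500 kg per hectare. Plants grew under standard greenhouse care and were visually rated 0-9 against untreated controls 4-5 weeks post-treatment.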

CYPSE (Flatsedge) = assay: Preemergence weed control under flooded paddy conditions; format: in vivo, Cyperus serotinus; settings: rated 3-4 weeks after treatment
Method in brief: (§2)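 Visual injury scored 0-9 against control three to four weeks post-treatment, greenhouse-grown. Application: acetone/water (50/50) solutions dosed directly into flood water (1.5-3 cm over silt loam, planted top 0.5 cm), roughly 0.0313 to 0.500 kg/ha active ingredient.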

AMBEL (Ragweed, Common) = assay: Postemergence herbicidal evaluation; format: in vivo, Ambrosia artemisifolia; settings: postemergence
Method in brief: (§3)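 Each compound, dispersed in an acetone/water mix (50/50) carrying 0.5% TWEEN 20, is nozzle-sprayed at 40 psi on approximately two-week-old seedlings at about 0.0156–0.500 kg/ha. Plants are assessed 4–5 weeks afterward on a 0–9 scale relative to control; duplicate tests are averaged.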

[1] = tested on: GLXMAW (Soybean, Williams); assay: Postemergence herbicidal evaluation; format: in vivo, Glycine max, (L.) Merr. cv Williams; settings: postemergence
Method in brief: as §3

CASOB (Sicklepod) = assay: Postemergence herbicidal evaluation; format: in vivo, Cassia obtusifolia; settings: postemergence
Method in brief: as §3

[2] = tested on: TRZAWR (Wheat, Winter, cv Riband); assay: Postemergence herbicidal evaluation; format: in vivo, Triticum aestivum; settings: postemergence
Method in brief: as §3

GALAP (Galium) [3] = assay: Preemergence herbicidal evaluation; format: in vivo, Galium aparine; settings: rated 4-5 weeks after treatment
Method in brief: as §1

[4] = tested on: ECHORC (Watergrass (Calif.)); assay: Preemergence weed control under flooded paddy conditions; format: in vivo, Echinochloa oryzoides; settings: rated 3-4 weeks after treatment
Method in brief: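 Flooded-pot preemergence screen with silt loam and seeds in the upper 0.5 cm. Dose about 0.0313 to 0.500 kg/ha, delivered into flood water; visual 0-9 score after 3 to 4 weeks.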

MOOVA (Monochoria) = assay: as above; format: in vivo, Monochoria vaginalis; settings: rated 3-4 weeks after treatment
Method in brief: as §2

SETVI (Foxtail, Green) = assay: Preemergence herbicidal evaluation; format: in vivo, Setaria viridis; settings: rated 4-5 weeks after treatment
Method in brief: as §1

GALAP (Galium) [5] = assay: Postemergence herbicidal evaluation; format: in vivo, Galium aparine; settings: postemergence
Method in brief: as §3

[6] = tested on: SAGPY (Arrowhead (Pygmaea)); assay: Preemergence weed control under flooded paddy conditions; format: in vivo, Sagittaria pygmaea; settings: rated 3-4 weeks after treatment
Method in brief: as §2

## Cn1c(C(F)(F)F)cc(=O)n(-c2cc(N=C3SCC(=O)N3Cc3ccco3)c(Cl)cc2F)c1=O [Compound 122, 3-{4-Chloro-2-fluoro-5-[(3-furfuryl-4-oxo-2-thiazolidinylidene)amino]phenyl}-1-methyl-6-(trifluoromethyl)-2,4(1H,3H)-pyrimidinedione]
ORYSAT (Rice, Tebonnet); rate 0.0156 kg/ha
  Preemergence herbicidal rating ORYSAT: 0.0
ORYSAT (Rice, Tebonnet); rate 0.0313 kg/ha
  Preemergence herbicidal rating ORYSAT: 0.0
ORYSAT (Rice, Tebonnet); rate 0.0625 kg/ha
  Preemergence herbicidal rating ORYSAT: 0.0
ORYSAT (Rice, Tebonnet); rate 0.1250 kg/ha
  Preemergence herbicidal rating ORYSAT: 0.0
ORYSAT (Rice, Tebonnet); rate 0.2500 kg/ha
  Preemergence herbicidal rating ORYSAT: 0.0
ORYSAT (Rice, Tebonnet); rate 0.5000 kg/ha
  Preemergence herbicidal rating ORYSAT: 1.0
CYPSE (Flatsedge); 0.2500 kg/ha
  herbicidal effect rating, CYPSE: 3.0
AMBEL (Ragweed, Common); rate 0.0156 kg/ha
  herbicidal rating AMBEL: 7.0
AMBEL (Ragweed, Common); rate 0.0313 kg/ha
  herbicidal rating AMBEL: 9.0
AMBEL (Ragweed, Common); rate 0.0625 kg/ha
  herbicidal rating AMBEL: 9.0
AMBEL (Ragweed, Common); rate 0.1250 kg/ha
  herbicidal rating AMBEL: 9.0
[1]; rate 0.0156 kg/ha
  herbicidal rating GLXMAW: 5.5
[1]; rate 0.0313 kg/ha
  herbicidal rating GLXMAW: 6.5
[1]; rate 0.0625 kg/ha
  herbicidal rating GLXMAW: 6.5
[1]; rate 0.1250 kg/ha
  herbicidal rating GLXMAW: 6.5
CASOB (Sicklepod); rate 0.0156 kg/ha
  herbicidal rating CASOB: 1.0
CASOB (Sicklepod); rate 0.0313 kg/ha
  herbicidal rating CASOB: 3.0
CASOB (Sicklepod); rate 0.0625 kg/ha
  herbicidal rating CASOB: 3.0
CASOB (Sicklepod); rate 0.1250 kg/ha
  herbicidal rating CASOB: 4.0
[2]; rate 0.0156 kg/ha
  herbicidal rating TRZAWR: 3.0
[2]; rate 0.0313 kg/ha
  herbicidal rating TRZAWR: 3.5
[2]; rate 0.0625 kg/ha
  herbicidal rating TRZAWR: 4.5
[2]; rate 0.1250 kg/ha
  herbicidal rating TRZAWR: 5.0
GALAP (Galium) [3]; rate 0.0156 kg/ha
  Preemergence herbicidal rating GALAP: 3.0
GALAP (Galium) [3]; rate 0.0313 kg/ha
  Preemergence herbicidal rating GALAP: 2.0
GALAP (Galium) [3]; rate 0.0625 kg/ha
  Preemergence herbicidal rating GALAP: 3.0
GALAP (Galium) [3]; rate 0.1250 kg/ha
  Preemergence herbicidal rating GALAP: 4.0
GALAP (Galium) [3]; rate 0.2500 kg/ha
  Preemergence herbicidal rating GALAP: 4.0
GALAP (Galium) [3]; rate 0.5000 kg/ha
  Preemergence herbicidal rating GALAP: 6.0
[4]; 0.0313 kg/ha
  herbicidal effect rating, ECHORC: 6.0
[4]; 0.0625 kg/ha
  herbicidal effect rating, ECHORC: 7.0
[4]; 0.1250 kg/ha
  herbicidal effect rating, ECHORC: 7.0
[4]; 0.2500 kg/ha
  herbicidal effect rating, ECHORC: 7.0
MOOVA (Monochoria); 0.0313 kg/ha
  herbicidal effect rating, MOOVA: 8.0
MOOVA (Monochoria); 0.0625 kg/ha
  herbicidal effect rating, MOOVA: 9.0
MOOVA (Monochoria); 0.1250 kg/ha
  herbicidal effect rating, MOOVA: 9.0
MOOVA (Monochoria); 0.2500 kg/ha
  herbicidal effect rating, MOOVA: 9.0
SETVI (Foxtail, Green); rate 0.0156 kg/ha
  Preemergence herbicidal rating SETVI: 0.0
SETVI (Foxtail, Green); rate 0.0313 kg/ha
  Preemergence herbicidal rating SETVI: 0.0
SETVI (Foxtail, Green); rate 0.0625 kg/ha
  Preemergence herbicidal rating SETVI: 0.0
SETVI (Foxtail, Green); rate 0.1250 kg/ha
  Preemergence herbicidal rating SETVI: 1.0
SETVI (Foxtail, Green); rate 0.2500 kg/ha
  Preemergence herbicidal rating SETVI: 1.0
SETVI (Foxtail, Green); rate 0.5000 kg/ha
  Preemergence herbicidal rating SETVI: 9.0
GALAP (Galium) [5]; rate 0.0156 kg/ha
  herbicidal rating GALAP: 2.0
GALAP (Galium) [5]; rate 0.0313 kg/ha
  herbicidal rating GALAP: 2.0
GALAP (Galium) [5]; rate 0.0625 kg/ha
  herbicidal rating GALAP: 4.0
GALAP (Galium) [5]; rate 0.1250 kg/ha
  herbicidal rating GALAP: 6.0
[6]; 0.0313 kg/ha
  herbicidal effect rating, SAGPY: 2.0
[6]; 0.0625 kg/ha
  herbicidal effect rating, SAGPY: 3.0
[6]; 0.1250 kg/ha
  herbicidal effect rating, SAGPY: 5.0
[6]; 0.2500 kg/ha
  herbicidal effect rating, SAGPY: 6.0

## Cn1c(C(F)(F)F)cc(=O)n(-c2cc(N=C3SCC(=O)N3CC(=O)OCC3CC3)c(Cl)cc2F)c1=O [Compound 124, Cyclopropylmethyl 2-{{2-chloro-5-[3,6-dihydro-3-methyl-2,6-dioxo-4-(trifluoromethyl)-1(2H)-pyrimidinyl]-4-fluorophenyl}imino}-4-oxo-3-thiazolidineacetate]
ORYSAT (Rice, Tebonnet); rate 0.0156 kg/ha
  Preemergence herbicidal rating ORYSAT: 0.0
ORYSAT (Rice, Tebonnet); rate 0.0313 kg/ha
  Preemergence herbicidal rating ORYSAT: 0.0
ORYSAT (Rice, Tebonnet); rate 0.0625 kg/ha
  Preemergence herbicidal rating ORYSAT: 0.0
ORYSAT (Rice, Tebonnet); rate 0.1250 kg/ha
  Preemergence herbicidal rating ORYSAT: 0.0
ORYSAT (Rice, Tebonnet); rate 0.2500 kg/ha
  Preemergence herbicidal rating ORYSAT: 0.0
ORYSAT (Rice, Tebonnet); rate 0.5000 kg/ha
  Preemergence herbicidal rating ORYSAT: 2.0
CYPSE (Flatsedge); 0.0313 kg/ha
  herbicidal effect rating, CYPSE: 0.0
CYPSE (Flatsedge); 0.0625 kg/ha
  herbicidal effect rating, CYPSE: 0.0
CYPSE (Flatsedge); 0.1250 kg/ha
  herbicidal effect rating, CYPSE: 2.0
CYPSE (Flatsedge); 0.2500 kg/ha
  herbicidal effect rating, CYPSE: 3.0
AMBEL (Ragweed, Common); rate 0.0156 kg/ha
  herbicidal rating AMBEL: 9.0
AMBEL (Ragweed, Common); rate 0.0313 kg/ha
  herbicidal rating AMBEL: 9.0
AMBEL (Ragweed, Common); rate 0.0625 kg/ha
  herbicidal rating AMBEL: 9.0
[1]; rate 0.0156 kg/ha
  herbicidal rating GLXMAW: 6.7
[1]; rate 0.0313 kg/ha
  herbicidal rating GLXMAW: 7.3
[1]; rate 0.0625 kg/ha
  herbicidal rating GLXMAW: 7.0
CASOB (Sicklepod); rate 0.0156 kg/ha
  herbicidal rating CASOB: 2.0
CASOB (Sicklepod); rate 0.0313 kg/ha
  herbicidal rating CASOB: 2.0
CASOB (Sicklepod); rate 0.0625 kg/ha
  herbicidal rating CASOB: 3.0
[2]; rate 0.0156 kg/ha
  herbicidal rating TRZAWR: 3.7
[2]; rate 0.0313 kg/ha
  herbicidal rating TRZAWR: 4.3
[2]; rate 0.0625 kg/ha
  herbicidal rating TRZAWR: 5.0
GALAP (Galium) [3]; rate 0.0156 kg/ha
  Preemergence herbicidal rating GALAP: 0.0
GALAP (Galium) [3]; rate 0.0313 kg/ha
  Preemergence herbicidal rating GALAP: 0.0
GALAP (Galium) [3]; rate 0.0625 kg/ha
  Preemergence herbicidal rating GALAP: 0.0
GALAP (Galium) [3]; rate 0.1250 kg/ha
  Preemergence herbicidal rating GALAP: 0.0
GALAP (Galium) [3]; rate 0.2500 kg/ha
  Preemergence herbicidal rating GALAP: 6.0
GALAP (Galium) [3]; rate 0.5000 kg/ha
  Preemergence herbicidal rating GALAP: 7.0
[4]; 0.0313 kg/ha
  herbicidal effect rating, ECHORC: 5.0
[4]; 0.0625 kg/ha
  herbicidal effect rating, ECHORC: 5.0
[4]; 0.1250 kg/ha
  herbicidal effect rating, ECHORC: 9.0
[4]; 0.2500 kg/ha
  herbicidal effect rating, ECHORC: 8.0
MOOVA (Monochoria); 0.0313 kg/ha
  herbicidal effect rating, MOOVA: 0.0
MOOVA (Monochoria); 0.0625 kg/ha
  herbicidal effect rating, MOOVA: 0.0
MOOVA (Monochoria); 0.1250 kg/ha
  herbicidal effect rating, MOOVA: 0.0
MOOVA (Monochoria); 0.2500 kg/ha
  herbicidal effect rating, MOOVA: 7.0
SETVI (Foxtail, Green); rate 0.0156 kg/ha
  Preemergence herbicidal rating SETVI: 0.0
SETVI (Foxtail, Green); rate 0.0313 kg/ha
  Preemergence herbicidal rating SETVI: 0.0
SETVI (Foxtail, Green); rate 0.0625 kg/ha
  Preemergence herbicidal rating SETVI: 0.0
SETVI (Foxtail, Green); rate 0.1250 kg/ha
  Preemergence herbicidal rating SETVI: 0.0
SETVI (Foxtail, Green); rate 0.2500 kg/ha
  Preemergence herbicidal rating SETVI: 4.0
SETVI (Foxtail, Green); rate 0.5000 kg/ha
  Preemergence herbicidal rating SETVI: 9.0
GALAP (Galium) [5]; rate 0.0156 kg/ha
  herbicidal rating GALAP: 0.0
GALAP (Galium) [5]; rate 0.0313 kg/ha
  herbicidal rating GALAP: 1.0
GALAP (Galium) [5]; rate 0.0625 kg/ha
  herbicidal rating GALAP: 6.0
[6]; 0.0313 kg/ha
  herbicidal effect rating, SAGPY: 0.0
[6]; 0.0625 kg/ha
  herbicidal effect rating, SAGPY: 0.0
[6]; 0.1250 kg/ha
  herbicidal effect rating, SAGPY: 4.0
[6]; 0.2500 kg/ha
  herbicidal effect rating, SAGPY: 5.0
